From US5328917A, “Piperidine compounds for treating anoxia, cerebral ischemia migraine or epilepsy” (Novo Nordisk A/S, priority 1990, dated 1994)
Where a name gives a salt, the structure may show the parent alone.

Experiments:
[1] = test system: voltage operated calcium channels; assay: Inhibition of depolarization-stimulated 45Ca uptake into brain synaptosomes (crude P2 fraction of cerebral cortex); type: biochemical, male Wistar rat; conditions: rat cerebral cortex synaptosomes, KCl-depolarized, corrected for basal uptake, 15 s uptake at 37° C., estimated from dose response curves
Text: The pharmacological properties of the compounds of the invention can be illustrated by determining their capability to inhibit calcium uptake into brain synaptosomes. Depolarization of neuronal membranes leads to an opening of socalled "voltage operated calcium channels" (VOC) in the membranes which allows a massive influx of calcium from the extracellular space. A crude synaptosomal preparation (socalled P2 fraction) contains small vesicles surrounded by neuronal membrane and it is possible in such a preparation to study a depolarization-induced opening of VOC. In the present model ^45 Ca influx is induced in the synaptosomes by depolarization with elevated potassium concentrations, and the effect of test substances on this stimulated uptake is studied ([…]. and Blaustein, M. P., Mol. […] A male Wistar rat is decapitated and the cerebral cortex removed and homogenized in 10 ml. of ice-cold 0.32M sucrose using a glass homogenizer with a teflon pestle. All subsequent steps for isolation of synaptosomes are done at 0°-4° C. […] This pellet (P2) is resuspended in 0.32M sucrose (5 ml per g of original tissue) with a teflon pestle. […] The tubes are pre-incubated for 30 min on ice and then for 6 min at 37° C. in a water bath. […] The incubation is continued for 15 s. […] The amount of radioactivity on the filter disc is determined by liquid scintillation spectrometry. Test substances are dissolved in 10 ml of 48% ethanol at a concentration of 0.44 mg/ml. Dilution are made in 48% ethanol to give final concentrations of 0.1, 0.3, 1, 3 and 10 μg/ml. Experiments are performed in triplicate. […] The IC50 value is estimated from dose response curves.

[2] = test system: peripheral calcium uptake, e.g. in blood vessels and the heart; conditions: well known calcium antagonists; cited from earlier work

Row | Structure (SMILES) | IC50 (concentration of test substance which inhibits 50% of stimulated uptake of 45Ca) [1] [mg/L] | further results
1 | CCCCN1CC[C@@H](c2ccc(N(C)C)cc2)[C@H](COc2ccc(C(F)(F)F)cc2)C1.Cl (racemic) [Compound 11, (+-)trans-1-butyl-4-(4-dimethylaminophenyl)-3-(4-trifluoromethylphenoxymethyl)piperidine, hydrochloride] | 4.9 | –
2 | CCCCN1CC[C@@H](c2ccc(N(C)C)cc2)[C@H](COc2ccc3c(c2)OCO3)C1.Cl (racemic) [Compound 15, (+-)trans-1-butyl-4-(4-dimethylaminophenyl)-3-(3,4-methylenedioxyphenoxymethyl)piperidine, hydrochloride] | 5.0 | –
3 | CCCCN1CC[C@@H](c2ccc(N(C)C)cc2)[C@H](COc2cccc(C(F)(F)F)c2)C1.Cl (racemic) [Compound 17, (+-)trans-1-butyl-4-(4-dimethylaminophenyl)-3-(3-trifluoromethylphenoxymethyl)piperidine, hydrochloride] | 7.4 | –
4 | CCCCN1CC[C@@H](c2ccc(N(C)C)cc2)[C@H](COc2ccc(Cl)cc2)C1 (relative stereo) [Compound 51, (+-) trans 1-butyl-3-(4-chlorophenoxymethyl)-4-(4-dimethylaminophenyl) piperidine, hydrochloride] | 3.8 | –
5 | CCCCN1CC[C@@H](c2ccc(N(C)C)cc2)[C@H](COc2ccc(Cl)c(Cl)c2)C1 (relative stereo) [Compound 52, (+-) trans 1-butyl-3-(3,4-dichlorophenoxymethyl) 4-(4-dimethylaminophenyl)piperidine, HCl] | 2.8 | –
6 | CCCCN1CC[C@@H](c2ccc(N(C)C)cc2)[C@H](COc2ccc([N+](=O)[O-])cc2)C1 (relative stereo) [Compound 57, (+-) trans 1-butyl-4-(4-dimethylaminophenyl)-3-(4-nitrophenoxymethyl) piperidine, HCl] | 3.2 | –
7 | O=[N+]([O-])c1ccc([C@@H]2CCNC[C@H]2COc2cccc(C(F)(F)F)c2)cc1 (single isomer, unassigned) [Compound 9, (31)trans-4-(4-nitrophenyl)-3-(3-trifluoromethylphenoxymethyl)piperidine, hydrochloride] | 7.2 | –
8 | CCCCCN1CC[C@@H](c2ccc(N)cc2)[C@H](COc2ccc3c(c2)OCO3)C1.Cl (single isomer, unassigned) [Compound 10, (+)trans-4-(4-aminophenyl)-3-(3,4-methylenedioxyphenoxymethyl)-1-pentylpiperidine, hydrochloride] | 8.9 | –
9 | CCCCCN1CC[C@@H](c2ccc(F)cc2)[C@H](COCc2ccc(C(F)(F)F)cc2)C1 (single isomer, unassigned) [Compound 36, (-) trans-4-(4-fluorophenyl)-1-pentyl-3-(4-trifluoromethylbenzyloxymethyl)-piperidine, HCl] | 6.4 | –
10 | CCCCCN1CC[C@@H](c2ccc(F)cc2)[C@H](COCc2cccc(C(F)(F)F)c2)C1 (single isomer, unassigned) [Compound 60, (-)trans-4-(4-fluorophenyl)-1-pentyl-3-(3-trifluoromethylbenzyloxymethyl)-piperidine, HCl] | 5.5 | –
11 | CCCCN1CC[C@@H](c2ccc(N(C)C)cc2)[C@H](COc2ccc(C(F)(F)F)cc2)C1.Cl.Cl (single isomer, unassigned) [Compound 64, (+)-trans-1-butyl-4-(4-dimethylaminophenyl)-3-(4-trifluoromethylphenoxymethyl)piperidine dihydrochloride] | – | IC50 (concentration of test substance which inhibits 50% of stimulated uptake of 45Ca) ([1]; dihydrochloride): 4.2 mg/L
12 | CCCCN1CC[C@@H](c2ccc(N(C)C)cc2)[C@H](COc2ccc(C(F)(F)F)cc2)C1.Cl.Cl (single isomer, unassigned) [Compound 65, (-)-trans-1-butyl-4-(4-dimethylaminophenyl)-3-(4-trifluoromethylphenoxymethyl)piperidine dihydrochloride] | – | IC50 (concentration of test substance which inhibits 50% of stimulated uptake of 45Ca) ([1]; dihydrochloride): 6.5 mg/L
13 | CCCCN1CCC(c2ccccc2)C(CNCc2ccc(OC)cc2)C1 (centres unmarked) [Compound 20, 1-butyl-3-(4-methoxybenzylaminomethyl)-4-phenylpiperidine, HCl] | 2.7 | –
14 | CCCCN1CCC(c2ccccc2)C(CNc2ccc(C(F)(F)F)cc2)C1 (centres unmarked) [Compound 22, 1-butyl-3-(4-trifluoromethylphenylaminomethyl)-4-phenylpiperidine, HCl] | 4 | –
15 | COc1ccc([C@@H]2Sc3ccccc3N(CCN(C)C)C(=O)[C@@H]2OC(C)=O)cc1 [Diltiazem] | – | activity against peripheral calcium uptake [2]: have activity against peripheral calcium uptake
16 | COC(=O)C1=C(C)NC(C)=C(C(=O)OC)C1c1ccccc1[N+](=O)[O-] [Nifedipine] | – | activity against peripheral calcium uptake [2]: have activity against peripheral calcium uptake
17 | COc1ccc(CCN(C)CCCC(C#N)(c2ccc(OC)c(OC)c2)C(C)C)cc1OC (centres unmarked) [Verapamil] | – | activity against peripheral calcium uptake [2]: have activity against peripheral calcium uptake
